Measurements from patent US20090233942A1, “Genetic markers associated with response to antidepressants” (priority 2008, published 2009).

System: adult patients diagnosed with MDD
Assay: Eight-week randomized, double-blind, placebo-controlled study: association of sequenced gene markers (Tables 1-17) with vilazodone response as change of MADRS
Assay type: in vivo, human
Settings: mean MADRS decrease
Source text: There was a wide range of inter-individual variability in response to vilazodone as well as to placebo and the active comparators. This variability may be partially due to genetic differences among the individuals treated. This example illustrates a randomized, double-blind, placebo-controlled, multicenter, eight-week study designed to discover genetic markers of response to vilazodone in adult patients diagnosed with MDD by the DSM-IV-TR criteria. Patients must have met all of the following inclusion criteria to be considered for enrollment in the study: (1) 18-65 years of age; (2) diagnosis of MDD, single episode or recurrent, according to DSM-IV-TR (296.2/296.3) with a current Major Depressive Episode of less than one year's duration with a minimum duration of at least 4 weeks; (3) HAM-D score≧22 on the first 17 items of the 21-item HAM-D at screening and baseline visits; (4) HAM-D item 1 (depressed mood) score≧2 at the screening visit and the baseline visit; (5) provision of written informed consent to participate; and (6) ability to speak, read and understand English and to respond to questions and follow simple instructions.
Following randomization into vilazodone and placebo groups, patients began the forced titration schedule. Patients received 10 mg qd until Visit 3 (approximately Day 7). At Visit 3 patients received 20 mg qd until Visit 4 (approximately Day 14). At Visit 4 patients received the target dose of 40 mg qd (approximately Day 15). A total of 152 patients completed the vilazodone arm, while 154 patients completed the placebo arm.
This example illustrates genotyping of the study group for the ACE, ATP5C3, BCL2L1, CYP2C9, DRD3, FOS, DTNBP1, GABRG3, GRIA4, LAMA4, MAPK1, NPY1R, OPRD1, OPRM1, PER3, PLCB1, and PSMD1 polymorphic sites selected by the inventors herein for analysis. Genomic DNA was isolated from blood obtained from each individual and amplified target regions containing the polymorphic sites in Tables A-21 to A-37 (Appendix A) were sequenced to determine the genotypes at these polymorphic sites. Tailed (Universal M13 Forward and Reverse) PCR primers were designed using the sequence of SEQ ID NO:1 for ACE, SEQ ID NO:2 for ATP5C3, SEQ ID NO:3 for BCL2L1, SEQ ID NO:4 for CYP2C9, SEQ ID NO:5 for DRD3, SEQ ID NO:6 for FOS, SEQ ID NO:7 for DTNBP1, SEQ ID NO:8 for GABRG3, SEQ ID NO:9 for GRIA4, SEQ ID NO:10 for LAMA4, SEQ ID NO:11 for MAPK1, SEQ ID NO:12 for NPY1R, SEQ ID NO:13 for OPRD1, SEQ ID NO:14 for OPRM1, SEQ ID NO:15 for PER3, SEQ ID NO:16 for PLCB1, and SEQ ID NO:17 for PSMD1. Amplified PCR products were sequenced using Applied Biosystems' Big Dye® Terminator v 3.1 cycle sequencing kit according to manufacturer's instructions. The reaction products were then electrophoresed using an Applied Biosystems 3700 or 3730xl DNA analyzer. Polymorphisms were identified using the Polyphred program, and confirmed by visual inspection.
Haplotypes were estimated from the unphased genotypes using a computer-implemented algorithm for assigning haplotypes to unrelated individuals in a population sample, essentially as described in WO 01/80156. In this method, haplotypes are assigned directly from individuals who are homozygous at all sites or heterozygous at no more than one of the variable sites. This list of haplotypes is then used to deconvolute the unphased genotypes in the remaining (multiply heterozygous) individuals.
This example illustrates analysis of the markers in Tables A-1 to A-17 (Appendix A) for association with vilazodone response. A proprietary algorithm was used as a tool for finding associations between markers and outcomes. The clinical outcomes were improvement in disease over eight weeks of treatment with vilazodone as measured by the MADRS scale. A linear model was first fitted on the covariates, which were treatment center, race, ethnicity, and baseline values. […]

[1] = PLCB1 marker 1, carriers vs non-carriers
[2] = PLCB1 marker 2, carriers vs non-carriers
[3] = PLCB1 marker 3, carriers vs non-carriers
[4] = PLCB1 marker 4, carriers vs non-carriers
[5] = PLCB1 marker 5, carriers vs non-carriers
[6] = PLCB1 marker 6, carriers vs non-carriers
[7] = PLCB1 marker 7, carriers vs non-carriers
[8] = PLCB1 marker 8, carriers vs non-carriers
[9] = PLCB1 marker 9, carriers vs non-carriers
[10] = PLCB1 marker 10, carriers vs non-carriers
[11] = PLCB1 marker 11, carriers vs non-carriers
[12] = PLCB1 marker 12, carriers vs non-carriers
[13] = PLCB1 marker 13, carriers vs non-carriers
[14] = PLCB1 marker 17, carriers vs non-carriers
[15] = PLCB1 marker 18, carriers vs non-carriers
[16] = PLCB1 marker 19, carriers vs non-carriers
[17] = PLCB1 marker 20, carriers vs non-carriers
[18] = PLCB1 marker 21, carriers vs non-carriers
[19] = PLCB1 marker 22, carriers vs non-carriers
[20] = PLCB1 marker 23, carriers vs non-carriers
[21] = PLCB1 marker 24, carriers vs non-carriers
[22] = PLCB1 marker 25, carriers vs non-carriers
[23] = PLCB1 marker 26, carriers vs non-carriers
[24] = PLCB1 marker 27, carriers vs non-carriers
[25] = PLCB1 marker 28, carriers vs non-carriers
[26] = PLCB1 marker 29, carriers vs non-carriers
[27] = PLCB1 marker 30, carriers vs non-carriers
[28] = PLCB1 marker 31, carriers vs non-carriers
[29] = PLCB1 marker 32, carriers vs non-carriers
[30] = PLCB1 marker 33, carriers vs non-carriers
[31] = PLCB1 marker 34, carriers vs non-carriers
[32] = PLCB1 marker 35, carriers vs non-carriers
[33] = PLCB1 marker 36, carriers vs non-carriers
[34] = PLCB1 marker 37, carriers vs non-carriers
[35] = PLCB1 marker 38, carriers vs non-carriers
[36] = PLCB1 marker 39, carriers vs non-carriers
[37] = PLCB1 marker 40, carriers vs non-carriers
[38] = PLCB1 marker 41, carriers vs non-carriers
[39] = PLCB1 marker 42, carriers vs non-carriers
[40] = PLCB1 marker 43, carriers vs non-carriers
[41] = PLCB1 marker 44, carriers vs non-carriers
[42] = PLCB1 marker 45, carriers vs non-carriers
[43] = PLCB1 marker 46, carriers vs non-carriers
[44] = PLCB1 marker 47, carriers vs non-carriers
[45] = PLCB1 marker 48, carriers vs non-carriers
[46] = PLCB1 marker 49, carriers vs non-carriers
[47] = PLCB1 marker 50, carriers vs non-carriers
[48] = PLCB1 marker 51, carriers vs non-carriers
[49] = PLCB1 marker 52, carriers vs non-carriers
[50] = PLCB1 marker 53, carriers vs non-carriers

Structure (SMILES): Cl.N#Cc1ccc2[nH]cc(CCCCN3CCN(c4ccc5oc(C(N)=O)cc5c4)CC3)c2c1 [Vilazodone, 5-{4-[4-(5-Cyano-3-indolyl)-butyl]-1-piperazinyl}-benzofuran-2-carboxamide hydrochloride]
- Response difference (Cauc. only) [1]: −6.1
- Response difference (all ethnic.) [1]: −4.8
- Response difference (Cauc. only) [2]: −6.2
- Response difference (all ethnic.) [2]: −4.8
- Response difference (Cauc. only) [3]: −6.5
- Response difference (all ethnic.) [3]: −5.1
- Response difference (Cauc. only) [4]: −6.6
- Response difference (all ethnic.) [4]: −5.1
- Response difference (Cauc. only) [5]: −5.9
- Response difference (all ethnic.) [5]: −4.3
- Response difference (Cauc. only) [6]: −6
- Response difference (all ethnic.) [6]: −4.3
- Response difference (Cauc. only) [7]: −5.4
- Response difference (all ethnic.) [7]: −3.9
- Response difference (Cauc. only) [8]: −6
- Response difference (all ethnic.) [8]: −4.3
- Response difference (Cauc. only) [9]: −6.4
- Response difference (all ethnic.) [9]: −5.1
- Response difference (Cauc. only) [10]: −5.8
- Response difference (all ethnic.) [10]: −4.6
- Response difference (Cauc. only) [11]: −6.4
- Response difference (all ethnic.) [11]: −5.2
- Response difference (Cauc. only) [12]: −7
- Response difference (all ethnic.) [12]: −5.6
- Response difference (Cauc. only) [13]: −6.2
- Response difference (all ethnic.) [13]: −4.9
- Response difference (Cauc. only) [14]: −6
- Response difference (all ethnic.) [14]: −4.7
- Response difference (Cauc. only) [15]: −6
- Response difference (all ethnic.) [15]: −4.7
- Response difference (Cauc. only) [16]: −6.6
- Response difference (all ethnic.) [16]: −4.6
- Response difference (Cauc. only) [17]: −6.7
- Response difference (all ethnic.) [17]: −4.7
- Response difference (Cauc. only) [18]: −5.9
- Response difference (all ethnic.) [18]: −4.2
- Response difference (Cauc. only) [19]: −6.7
- Response difference (all ethnic.) [19]: −4.7
- Response difference (Cauc. only) [20]: −6.1
- Response difference (all ethnic.) [20]: −4.8
- Response difference (Cauc. only) [21]: −6.2
- Response difference (all ethnic.) [21]: −4.8
- Response difference (Cauc. only) [22]: −6.5
- Response difference (all ethnic.) [22]: −5.1
- Response difference (Cauc. only) [23]: −6.5
- Response difference (all ethnic.) [23]: −5.1
- Response difference (Cauc. only) [24]: −6.5
- Response difference (all ethnic.) [24]: −5.1
- Response difference (Cauc. only) [25]: −6.5
- Response difference (all ethnic.) [25]: −5.1
- Response difference (Cauc. only) [26]: −6.5
- Response difference (all ethnic.) [26]: −5.1
- Response difference (Cauc. only) [27]: −6.5
- Response difference (all ethnic.) [27]: −5.1
- Response difference (Cauc. only) [28]: −6.5
- Response difference (all ethnic.) [28]: −5.1
- Response difference (Cauc. only) [29]: −6.5
- Response difference (all ethnic.) [29]: −5.1
- Response difference (Cauc. only) [30]: −6.5
- Response difference (all ethnic.) [30]: −5.1
- Response difference (Cauc. only) [31]: −6.5
- Response difference (all ethnic.) [31]: −5.1
- Response difference (Cauc. only) [32]: −6.5
- Response difference (all ethnic.) [32]: −5.1
- Response difference (Cauc. only) [33]: −6.5
- Response difference (all ethnic.) [33]: −5.1
- Response difference (Cauc. only) [34]: −6.5
- Response difference (all ethnic.) [34]: −5.1
- Response difference (Cauc. only) [35]: −6.5
- Response difference (all ethnic.) [35]: −5.1
- Response difference (Cauc. only) [36]: −6.5
- Response difference (all ethnic.) [36]: −5.1
- Response difference (Cauc. only) [37]: −6.6
- Response difference (all ethnic.) [37]: −5.1
- Response difference (Cauc. only) [38]: −6.6
- Response difference (all ethnic.) [38]: −5.1
- Response difference (Cauc. only) [39]: −6.6
- Response difference (all ethnic.) [39]: −5.1
- Response difference (Cauc. only) [40]: −6.6
- Response difference (all ethnic.) [40]: −5.1
- Response difference (Cauc. only) [41]: −6.6
- Response difference (all ethnic.) [41]: −5.1
- Response difference (Cauc. only) [42]: −6.6
- Response difference (all ethnic.) [42]: −5.1
- Response difference (Cauc. only) [43]: −6.6
- Response difference (all ethnic.) [43]: −5.1
- Response difference (Cauc. only) [44]: −6.6
- Response difference (all ethnic.) [44]: −5.1
- Response difference (Cauc. only) [45]: −6.6
- Response difference (all ethnic.) [45]: −5.1
- Response difference (Cauc. only) [46]: −6.6
- Response difference (all ethnic.) [46]: −5.1
- Response difference (Cauc. only) [47]: −6.6
- Response difference (all ethnic.) [47]: −5.1
- Response difference (Cauc. only) [48]: −6.6
- Response difference (all ethnic.) [48]: −5.1
- Response difference (Cauc. only) [49]: −6.6
- Response difference (all ethnic.) [49]: −5.1
- Response difference (Cauc. only) [50]: −6.6
- Response difference (all ethnic.) [50]: −5.1
